# Where a SMILES comes first, the peptide text is derived from it. [ ]: non-standard residue; d: D form. The star is where a group is joined. Heptanoyl = CCCCCCC(=O)*; Dap = NC[C@H](N)C(=O)O; X1 = O=C(CCCCCF)*
# How the values were obtained:
# [1] = target: T1, Growth hormone secretagogue receptor type 1 (Homo sapiens, UniProt Q92847); experiment: Displacement of [35S]MK-0677 from human growth hormone secretagogue receptor
# [2] = target: T1, Growth hormone secretagogue receptor type 1; experiment: Displacement of [125I]ghrelin from human growth hormone secretagogue receptor expressed in CHO-K1 cells at >2 uM; assay type: cell-based
# [3] = target: T1, Growth hormone secretagogue receptor type 1; experiment: Displacement of [125I]ghrelin from human growth hormone secretagogue receptor expressed in CHO-K1 cells; assay type: cell-based
# T1 sequence (Q92847 whole entry): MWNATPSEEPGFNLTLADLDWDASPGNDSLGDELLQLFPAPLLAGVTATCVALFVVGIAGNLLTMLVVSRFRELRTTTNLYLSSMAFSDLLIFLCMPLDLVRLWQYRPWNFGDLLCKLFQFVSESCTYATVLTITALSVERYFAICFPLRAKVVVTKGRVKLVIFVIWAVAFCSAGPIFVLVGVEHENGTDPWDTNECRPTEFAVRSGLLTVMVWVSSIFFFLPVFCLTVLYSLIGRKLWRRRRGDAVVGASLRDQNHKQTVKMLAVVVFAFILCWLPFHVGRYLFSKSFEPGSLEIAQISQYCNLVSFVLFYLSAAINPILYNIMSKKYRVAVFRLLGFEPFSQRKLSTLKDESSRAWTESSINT
SMILES,IC50 [1],Activity [2],IC50 [3]
CCCCCCC(=O)OC[C@H](NC(=O)[C@H](CO)NC(=O)CN)C(=O)N[C@@H](Cc1ccccc1)C(=O)N[C@@H](CC(C)C)C(=O)N[C@@H](CO)C(=O)N1CCC[C@H]1C(=O)N[C@@H](CCC(=O)O)C(=O)N[C@@H](Cc1cnc[nH]1)C(=O)N[C@@H](CCC(N)=O)C(=O)N[C@@H](CCCN=C(N)N)C(=O)N[C@H](C(=O)N[C@@H](CCC(N)=O)C(=O)N[C@@H](CCC(N)=O)C(=O)O)C(C)C,9.6 µM,–,–
CCCCCCC(=O)OC[C@H](NC(=O)[C@H](CO)NC(=O)CN)C(=O)N[C@@H](Cc1ccccc1)C(N)=O (H-GSS(Heptanoyl)F-NH2),889 µM,–,–
CCCCCCC(=O)OC[C@H](NC(=O)[C@H](CO)NC(=O)CN)C(=O)N[C@@H](Cc1ccccc1)C(=O)N[C@@H](CC(C)C)C(N)=O (H-GSS(Heptanoyl)FL-NH2),55 µM,–,–
CC(C)C[C@H](NC(=O)[C@H](Cc1ccccc1)NC(=O)[C@H](CNC(=O)CCCCCF)NC(=O)[C@H](CO)NC(=O)CN)C(N)=O (H-GS[Dap](X1)FL-NH2),–,20%,> 2000 nM
